Laboratory results from paper PMC3806161, “Strychnos pseudoquina and Its Purified Compounds Present an Effective In Vitro Antileishmanial Activity” (Evidence-based Complementary and Alternative Medicine : eCAM, 2013).
Where two headings read alike, the source gives them in different places.

Tests used:
[1] = system: stationary-phase promastigotes of L. amazonensis; assay: Antileishmanial activity: inhibition of promastigote viability (MTT); type: cell-based, Leishmania amazonensis
Method: Cell viability was assessed by measuring the cleavage of 2 mg/mL of MTT [3-(4.5-dimethylthiazol-2-yl)-2.5-diphenyl tetrazolium bromide] (Sigma). Absorbances were measured by using a multiwell scanning spectrophotometer (LABTRADE, model 660) at a wavelength of 570 nm. Amphotericin B (1 μM) was used as a positive control. The concentration of the products needed to inhibit 50% of the Leishmania viability (IC50) was determined by applying the sigmoidal regression of the concentration-response curves, using different concentrations of the compounds.

[2] = Cytotoxicity assay on macrophages (MTT); conditions: BALB/c, mouse, murine macrophages
Method: (§1) Cell viability was assessed by the MTT assay, and amphotericin B was used as a control. The selectivity index (SI) of the products was calculated by determining the ratio between IC50 and CC50. The hemolytic activity was investigated by incubating the products, in the same concentrations used for cytotoxicity evaluation, with a 5% red blood cell (human O^+) suspension for 1 h at 37°C. Briefly, the erythrocyte suspension was centrifuged (1000 ×g for 10 min), and cell lysis was determined spectrophotometrically (570 nm), as described [24]. The absence of (blank) or 100% presence of hemolysis (positive control) was determined by replacing the products for an equal volume of PBS or distilled water, respectively. The results were determined by the percentage of hemolysis when compared with the negative and positive controls. Data shown are representative of four independent experiments, performed in triplicate, which presented similar results.

murine macrophages [3] = assay: Cytotoxicity assay on macrophages (MTT); conditions: for SI, Selectivity Index (ratio between CC50 and IC50): murine macrophages vs L. amazonensis promastigotes
Method: as §1

[4] = system: L. amazonensis in infected murine macrophages; assay: Treatment of infected macrophages; type: cell-based, Leishmania amazonensis; conditions: for number of amastigotes per cell: untreated 8.4; for Percentage of infected macrophages after treatment: untreated 87.0
Method: Murine macrophages (5 × 10^5 cells) were plated on round glass coverslips inside the wells of a 24-well culture plate (Nunc) in an RPMI 1640 medium supplemented with 20% FBS, 2 mM L-glutamine, 200 U/mL penicillin, and 100 μg/mL streptomycin, at pH 7.4. After 24 h of incubation at 37°C in 5% CO2, stationary-phase promastigotes of L. amazonensis were added to the wells (5 × 10^6 cells), and the cultures were incubated for 24 h at 37°C in 5% CO2. A previous titration curve was performed to determine the minimum time incubation of parasites with the macrophages, in order to obtain the maximum of infection into the host cells (data not shown). Next, free parasites were removed by extensive washing with an RPMI 1640 medium, and infected macrophages were quantified and treated for 48 h with quercetin 3-O-methyl ether (0, 70, 140, or 280 μM) or strychnobiflavone (0, 40, 80 or 160 μM) for 48 h at […] in 5% CO2. Cells were washed in RPMI 1640 and incubated with 4% paraformaldehyde for 15 min, at which time they were treated with 70% ethanol in an ice bath for 4 h and again washed three times with sterile PBS. Amphotericin B was used as a control. The percentage of the inhibition of Leishmania intra-macrophage viability was determined by counting 200 cells in triplicate.

O+ human red blood cells = assay: Hemolytic activity; type: cell-based
Method: as §1

[5] = system: Leishmania amazonensis invasion of murine macrophages; assay: Inhibition of infection in phagocytic cells (pre-treated promastigotes); type: cell-based; conditions: for reductions in infectivity of parasites after treatment: parasites preincubated 4 h at 24°C, versus about 87% infected macrophages with untreated parasites, concentration not given; for number of amastigotes per cell / Percentage of infected macrophages after treatment: 4 h at 24°C; for number of amastigotes per cell: untreated 8.4; for Percentage of infected macrophages after treatment: untreated 87.0
Method: The inhibitory effect of quercetin 3-O-methyl ether and strychnobiflavone on the Leishmania invasion of macrophages was evaluated using promastigotes of L. amazonensis. Parasites (1 × 10^6 cells) were preincubated with different concentrations of quercetin 3-O-methyl ether (0, 70, 140, or 280 μM) or strychnobiflavone (0, 40, 80, or 160 μM) for 4 h at 24°C. […] After incubation, parasites were washed three times with RPMI 1640 medium, quantified, and incubated for 24 h with murine macrophages, using a ratio of 10 parasites per 1 macrophage. After, cells were washed, set, and stained to determine the percentage of infected macrophages by counting 200 cells in triplicate.

murine macrophages [6] = system: murine macrophages
Method: as §1

[7] = infected macrophages treated with 40 μM for 48 h
[8] = infected macrophages treated with 80 μM for 48 h
[9] = infected macrophages treated with 160 μM for 48 h
[10] = promastigotes pre-treated with 40 μM
[11] = promastigotes pre-treated with 80 μM
[12] = promastigotes pre-treated with 160 μM
[13] = Leishmania amazonensis, 48 h, stationary-phase promastigotes, 48 h at 24°C, MTT, read-out: IC50 (inhibitory concentration of 50% of promastigotes of L. amazonensis)
[14] = infected macrophages treated with 70 μM for 48 h
[15] = infected macrophages treated with 140 μM for 48 h
[16] = infected macrophages treated with 280 μM for 48 h
[17] = promastigotes pre-treated with 70 μM
[18] = promastigotes pre-treated with 140 μM
[19] = promastigotes pre-treated with 280 μM

Structure (SMILES): COc1c(-c2ccc(O)c(O)c2-c2c(O)cc(O)c3c(=O)c(OC)c(-c4ccc(O)c(O)c4)oc23)oc2cc(O)cc(O)c2c1=O [Strychnobiflavone, strychnobiflavone]
- IC50 ([1]; Leishmania amazonensis, 48 h, read-out: IC50 (inhibitory concentration of 50% of promastigotes of L. amazonensis), stationary-phase promastigotes, 48 h at 24°C, MTT): 3.16 µM
- IC50 ([1]; stationary-phase promastigotes, 48 h at 24°C, MTT, read-out: IC50 (inhibitory concentration of 50% of promastigotes of L. amazonensis)): 3.2 ± 0.2 µM
- CC50 at 48 h [2]: 125 ± 4.5 µM
- toxicity in murine macrophages (in words) (murine macrophages [3]; in vitro, after incubation with the products): no significant toxicity
- SI, Selectivity Index (ratio between CC50 and IC50) (murine macrophages [3]): 39.6
- SI, Selectivity Index (ratio between CC50 and IC50) (murine macrophages [3]; listed as strychnobiflavone): 39.55
- number of amastigotes per cell [4, 7]: 1.5
- Percentage of infected macrophages after treatment [4, 7]: 37.9%
- number of amastigotes per cell [4, 8]: 1.3
- Percentage of infected macrophages after treatment [4, 8]: 26.3%
- number of amastigotes per cell [4, 9]: 0.4
- Percentage of infected macrophages after treatment [4, 9]: 9.6%
- RBC50 (50% of human red blood cell lysis) (O+ human red blood cells; 5% human O+ red blood cell suspension, 1 h at 37°C): 209.6 ± 2.5 µM
- hemolytic activity / damage to human erythrocytes (in words) (O+ human red blood cells; O+ human red blood cells): no significant damage
- reductions in infectivity of parasites after treatment [5]: ~72.6%
- number of amastigotes per cell [5, 10]: 3.0
- Percentage of infected macrophages after treatment [5, 10]: 53.0%
- number of amastigotes per cell [5, 11]: 2.2
- Percentage of infected macrophages after treatment [5, 11]: 47.8%
- number of amastigotes per cell [5, 12]: 1.2
- Percentage of infected macrophages after treatment [5, 12]: 23.8%

Structure (SMILES): COc1c(-c2ccc(O)c(O)c2)oc2cc(O)cc(O)c2c1=O [Quercetin 3-O-methyl ether, quercetin 3-O-methyl ether]
- IC50 [1, 13]: 8.08 µM
- IC50 ([1]; stationary-phase promastigotes, 48 h at 24°C, MTT, listed as Quercetin 3-methyl ether, read-out: IC50 (inhibitory concentration of 50% of promastigotes of L. amazonensis)): 8.1 ± 1.5 µM
- SI, Selectivity Index (ratio between CC50 and IC50) (murine macrophages [3]): 24.62
- SI, Selectivity Index (ratio between CC50 and IC50) (murine macrophages [3]; listed as Quercetin 3-methyl ether): 24.6
- number of amastigotes per cell [4, 14]: 5.6
- Percentage of infected macrophages after treatment [4, 14]: 72.4%
- number of amastigotes per cell [4, 15]: 4.4
- Percentage of infected macrophages after treatment [4, 15]: 68.0%
- number of amastigotes per cell [4, 16]: 1.7
- Percentage of infected macrophages after treatment [4, 16]: 46.3%
- hemolytic activity / damage to human erythrocytes (in words) (O+ human red blood cells): no significant damage
- RBC50 (50% of human red blood cell lysis) (O+ human red blood cells; human, 1 h): 155.0 ± 33.2 µM
- toxicity in murine macrophages (in words) (murine macrophages [6]): no significant toxicity
- reductions in infectivity of parasites after treatment [5]: ~47%
- number of amastigotes per cell [5, 17]: 4.5
- Percentage of infected macrophages after treatment [5, 17]: 67.8%
- number of amastigotes per cell [5, 18]: 3.9
- Percentage of infected macrophages after treatment [5, 18]: 61.9%
- number of amastigotes per cell [5, 19]: 2.4
- Percentage of infected macrophages after treatment [5, 19]: 46.1%

Structure (SMILES): C[C@@H]1[C@H](O)[C@@H](C)/C=C/C=C/C=C/C=C/C=C/C=C/C=C/[C@H](O[C@@H]2O[C@H](C)[C@@H](O)[C@H](N)[C@@H]2O)C[C@@H]2O[C@](O)(C[C@@H](O)C[C@@H](O)[C@H](O)CC[C@@H](O)C[C@@H](O)CC(=O)O[C@H]1C)C[C@H](O)[C@H]2C(=O)O [AmpB, amphotericin B, reference compound]
- IC50 [1, 13]: 0.1 ± 0.13 µM
- SI, Selectivity Index (ratio between CC50 and IC50) (murine macrophages [3]): 9.9
- toxicity in murine macrophages (in words) (murine macrophages [6]): highly cytotoxic
